Source: US20170202787A1, “TREATMENT OF CHRONIC OBSTRUCTIVE PULMONARY DISEASE WITH NEBULIZED BETA 2-AGONIST OR COMBINED NEBULIZED BETA 2-AGONIST AND ANTICHOLINERGIC ADMINISTRATION” (Sunovion Respiratory Development, Inc., priority 2009, published 2017)
Where a name gives a salt, the structure may show the parent alone. Read-outs that look alike come from different tables or passages of the source.

What was measured:
[1] = nebulized, clinical trial in COPD; cited from earlier work
[2] = approved twice-daily dosing in COPD; cited from earlier work
[3] = not given; remark: listed apart in the source
[4] = high efficiency nebulizer
[5] = not given; remark: listed apart in the source
[6] = not given; remark: listed apart in the source
[7] = Example 6: randomized, cross-over, single dose study of nebulized salmeterol in healthy volunteers
[8] = conventional nebulizer, same or higher dose
[9] = lower dose, high efficiency nebulizer

COc1ccc(C[C@@H](C)NC[C@H](O)c2ccc(O)c(NC=O)c2)cc1 [arformoterol tartrate]
duration of clinically meaningful bronchodilation [1]: 24 h | side effects at the dosing giving 24 hours of bronchodilation [1]: unacceptable side effects | duration of clinically meaningful bronchodilation with acceptable side effects [2]: 12 h

COc1ccc(C[C@@H](C)NC[C@H](O)c2ccc(O)c(NC=O)c2)cc1.COc1ccc(C[C@@H](C)NC[C@H](O)c2ccc(O)c(NC=O)c2)cc1.O=C(O)/C=C/C(=O)O [formoterol fumarate]
duration of clinically meaningful bronchodilation with acceptable side effects [2]: 12 h

OCc1cc(C(O)CNCCCCCCOCCCCc2ccccc2)ccc1O (centres unmarked) [salmeterol xinafoate]
duration of clinically meaningful bronchodilation with acceptable side effects [2]: 12 h

COc1ccc(CC(C)NCC(O)c2ccc(O)c(NC=O)c2)cc1 (racemic) [formoterol]
duration of clinically meaningful bronchodilation [8]: less than 24 hours | duration of clinically meaningful bronchodilation (high efficiency nebulizer): at least 24 hours | duration of clinically meaningful bronchodilation [3, 8]: less than 24 hours | duration of clinically meaningful bronchodilation ([3]; high efficiency nebulizer): at least 24 hours

COc1ccc(C[C@@H](C)NC[C@H](O)c2ccc(O)c(NC=O)c2)cc1 [arformoterol, R,R-formoterol]
adverse event profile compared to a comparable or lower dose with a conventional nebulizer [4]: improved adverse event profile | lung deposition compared to a comparable or higher dose with a conventional nebulizer [4]: higher degree of lung deposition | duration of clinically meaningful bronchodilation [5, 8]: less than 24 hours | duration of clinically meaningful bronchodilation ([5]; high efficiency nebulizer): at least 24 hours | duration of clinically meaningful bronchodilation [6, 8]: less than 24 hours | duration of clinically meaningful bronchodilation ([6]; high efficiency nebulizer): at least 24 hours

OCc1cc(C(O)CNCCCCCCOCCCCc2ccccc2)ccc1O (centres unmarked) [salmeterol]
duration of clinically meaningful bronchodilation ([7]; high efficiency nebulizer): at least 24 hours | period of time of therapeutic effect ([7]; high efficiency nebulizer, tested doses): 12 to 24 h | adverse event profile / side effects (serum potassium, glucose) compared to a selected dose with a conventional nebulizer [7, 9]: improved adverse event profile and/or improved side effects | therapeutic effects compared to a selected dose with a conventional nebulizer [7, 9]: improved or similar therapeutic effects | duration of clinically meaningful bronchodilation ([7]; same dose with conventional nebulizer, metered dose inhaler, or dry powder inhaler): less than 24 hours
